Measured values from US10717757B2, “Ketolides having antibacterial activity” (BIOPHARMATI SA, priority 2016, dated 2020).
Values after ≈ are worked out from the molar mass of the structure shown. Like-named read-outs stand apart in the source and are kept apart here.

Columns and labels:
CYP3A4 = CYP3A4 (Homo sapiens, UniProt P08684); experiment: Cytochrome P4503A4 inhibition assay, human liver microsomes, LC-MS/MS probe substrate method; conditions: for IC50: human liver microsomes 0.1 mg/mL, 10 min; for CYP3A4 inhibition in comparison with solithromycin and ketoconazole: summary of Table 1
Procedure: Cytochrome P4503A4 Inhibition Assay for Determining IC50
The potential of the compound to inhibit CYP 3A4 was tested by the LC-MS/MS based probe substrate method using human liver microsomes. Midazolam or testosterone, which are metabolized to hydroxymidazolam or hydroxytestosterone by CYP 3A4, were the probe substrates used. […] NADPH was added as the cofactor. […] After incubation for ten minutes, the amount of 1-hydroxymidazolam or 6β-hydroxyltestosterone formed was determined by LC-MS/MS method as a measure of enzyme activity. Percent inhibition of enzyme activity was calculated based on the amount of metabolites (1-hydroxymidazolam or 6β-hydroxyltestosterone) formed for each sample relative to the basal control and plotted in a curve versus the compound concentration to obtain the IC50.

[1] = tested on: S. pneumoniae ATCC 49619 (CLSI QC strain); experiment: Minimum inhibitory concentration (MIC), broth microdilution, QC strain; type: cell-based, Streptococcus pneumoniae; conditions: MIC in duplicates
Procedure: (§1) Protocols for Determining Minimum Inhibitory Concentration (MIC) of Test Compounds Against Streptococcus Pneumoniae Strains
(§2) The test strains are revived from frozen stock on blood agar plates and incubated at 35±2° C. for 18-20 hours in 5% CO2. Colonies are directly suspended from an overnight grown agar culture in CAMHB/saline and optical density adjusted to 0.5 McFarland turbidity standard (1-2×10^8 cfu/mL). Adjusted cultures are further diluted 1:100 using CAMHB such that after inoculation each well finally contains ˜5×10^5 cfu/mL. For broth dilution testing of Streptococcus species, CAMHB is supplemented with 2.5-5% v/v LHB. Colony counts of inoculum suspension is estimated by ten-fold serial dilutions and plating each dilution on agar plate. After incubation, the plates are observed for growth and microbial counts determined.
(§3) Compounds are weighed and dissolved in water/DMSO/other solvent to yield 1 mg/mL stock solution. Serial two-fold dilutions of the test compounds and reference antibiotics are prepared. 50 μL of the diluted drug solutions are dispensed in wells of microtiter trays (96 well).
(§4) To each of the wells of the microtiter tray, 50 μL of the diluted organism are inoculated to obtain a final inoculum density of ˜5×10^5 cfu/mL. Broth control, compound control and organism control wells are set up.
(§5) MIC testing are done in duplicates
(§6) MIC is defined as the lowest concentration of an antimicrobial agent that prevents visible growth of a microorganism in broth dilution susceptibility test.
(§7) After incubation period, growth of organism in the wells are detected by unaided eye facilitated by a viewing device. The amount of growth in the drug-containing wells are compared with the amount of growth in the organism-control wells.

[2] = tested on: S. pneumoniae AUCC483, macrolide resistant & penicillin sensitive; experiment: Minimum inhibitory concentration (MIC), broth microdilution, AUCC483; type: cell-based, Streptococcus pneumoniae
Procedure: as §1, §2, §3, §4, §5, §6, §7

[3] = tested on: S. pneumoniae AUCC479, macrolide & penicillin sensitive; experiment: Minimum inhibitory concentration (MIC), broth microdilution, AUCC479; type: cell-based, Streptococcus pneumoniae
Procedure: as §1, §2, §3, §4, §5, §6, §7

[4] = tested on: S. pneumoniae AUCC489, macrolide & penicillin resistant; experiment: Minimum inhibitory concentration (MIC), broth microdilution, AUCC489; type: cell-based, Streptococcus pneumoniae
Procedure: as §1, §2, §3, §4, §5, §6, §7

[5] = tested on: S. pneumoniae AUCC488, macrolide & penicillin resistant; experiment: Minimum inhibitory concentration (MIC), broth microdilution, AUCC488; type: cell-based, Streptococcus pneumoniae
Procedure: as §1, §2, §3, §4, §5, §6, §7

[6] = read-out: IC50 CYP3A4 (midazolam), 5 μM midazolam
[7] = read-out: IC50 CYP3A4 (testosterone), 50 μM testosterone

Chain of CYP3A4 (P08684 whole entry): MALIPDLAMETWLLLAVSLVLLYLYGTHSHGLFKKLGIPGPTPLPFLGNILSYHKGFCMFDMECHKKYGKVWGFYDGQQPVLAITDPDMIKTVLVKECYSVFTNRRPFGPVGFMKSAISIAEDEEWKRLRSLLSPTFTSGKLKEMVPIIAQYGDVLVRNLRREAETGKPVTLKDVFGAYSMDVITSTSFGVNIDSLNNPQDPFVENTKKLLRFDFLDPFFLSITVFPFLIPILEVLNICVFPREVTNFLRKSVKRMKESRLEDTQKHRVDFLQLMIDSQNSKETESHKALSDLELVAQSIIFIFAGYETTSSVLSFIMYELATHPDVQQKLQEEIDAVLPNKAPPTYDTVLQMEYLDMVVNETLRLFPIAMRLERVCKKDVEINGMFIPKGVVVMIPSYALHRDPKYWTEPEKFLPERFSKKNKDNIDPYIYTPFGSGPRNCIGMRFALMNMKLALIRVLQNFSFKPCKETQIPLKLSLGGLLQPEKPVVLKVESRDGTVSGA

(3aS,4R,7R,9R,10R,11R,13R,15R,15aR)-10-{[(2S,3R,4S,6R)-4-(dimethylamino)-3-hydroxy-6-methyloxan-2-yl]oxy}-4-ethyl-3a,7,9,11,13,15-hexamethyl-1-[2-(4-methylpiperazin-1-yl)ethyl]-11-{[(2E)-3-(quinolin-3-yl)prop-2-en-1-yl]oxy}-tetradecahydro-1H-oxacyclotetradeca[4,3-d][1,3]oxazole-2,6,8,14-tetrone [Compound 13K]
IC50 (CYP3A4; [6]): 6.5 µM | CYP3A4 inhibition in comparison with solithromycin and ketoconazole (CYP3A4): lower IC50 inhibition of CYP3A4 inhibition | MIC Strep. Pneumoniae ATCC49619 QC strain [1]: 0.06 to 0.12 µg/mL | MIC Strep. Pneumoniae AUCC 483 penS, macR cMLS [2]: 0.5 to 1 µg/mL | MIC Strep. Pneumoniae AUCC 479 penS, macS [3]: 0.03 to 0.06 µg/mL | MIC Strep. Pneumoniae AUCC 489 penR, macR cMLS [4]: 0.5 to 1 µg/mL | MIC Strep. Pneumoniae AUCC 488 penR, macR M or iMLS [5]: 1 µg/mL

CC[C@H]1OC(=O)[C@H](C)C(=O)[C@H](C)[C@@H](O[C@@H]2O[C@H](C)C[C@H](N(C)C)[C@H]2O)[C@](C)(OC/C=C/c2cnc3ccccc3c2)C[C@@H](C)C(=O)[C@H](C)[C@H]2N(CC#N)C(=O)O[C@]12C [Compound 13H, 2-[(3aS,4R,7R,9R,10R,11R,13R,15R,15aR)-10-{[(2S,3R,4S,6R)-4-(dimethylamino)-3-hydroxy-6-methyloxan-2-yl]oxy}-4-ethyl-3a,7,9,11,13,15-hexamethyl-2,6,8,14-tetraoxo-11-{[(2E)-3-(quinolin-3-yl)prop-2-en-1-yl]oxy}-tetradecahydro-1H-oxacyclotetradeca[4,3-d][1,3]oxazol-1-yl]acetonitrile]
IC50 (CYP3A4; [6]): 1.9 µM | CYP3A4 inhibition in comparison with solithromycin and ketoconazole (CYP3A4): lower IC50 inhibition of CYP3A4 inhibition | MIC Strep. Pneumoniae ATCC49619 QC strain [1]: 0.03 to 0.06 µg/mL | MIC Strep. Pneumoniae AUCC 483 penS, macR cMLS [2]: 2 to 4 µg/mL | MIC Strep. Pneumoniae AUCC 479 penS, macS [3]: 0.008 to 0.015 µg/mL | MIC Strep. Pneumoniae AUCC 489 penR, macR cMLS [4]: 0.25 to 1 µg/mL | MIC Strep. Pneumoniae AUCC 488 penR, macR M or iMLS [5]: 0.25 to 1 µg/mL

(3aS,4R,7R,9R,10R,11R,13R,15R,15aR)-10-{[(2S,3R,4S,6R)-4-(dimethylamino)-3-hydroxy-6-methyloxan-2-yl]oxy}-4-ethyl-3a,7,9,11,13,15-hexamethyl-1-[3-(morpholin-4-yl)propyl]-11-{[(2E)-3-(quinolin-3-yl)prop-2-en-1-yl]oxy}-tetradecahydro-1H-oxacyclotetradeca[4,3-d][1,3]oxazole-2,6,8,14-tetrone [Compound 13J]
IC50 (CYP3A4; [6]): 5.9 µM | CYP3A4 inhibition in comparison with solithromycin and ketoconazole (CYP3A4): lower IC50 inhibition of CYP3A4 inhibition | MIC Strep. Pneumoniae ATCC49619 QC strain [1]: 0.06 to 0.12 µg/mL | MIC Strep. Pneumoniae AUCC 483 penS, macR cMLS [2]: 0.5 to 2 µg/mL | MIC Strep. Pneumoniae AUCC 479 penS, macS [3]: 0.03 to 0.06 µg/mL | MIC Strep. Pneumoniae AUCC 489 penR, macR cMLS [4]: 1 to 2.0 µg/mL | MIC Strep. Pneumoniae AUCC 488 penR, macR M or iMLS [5]: 1 µg/mL

(3aS,4R,7R,9R,10R,11R,13R,15R,15aR)-10-{[(2S,3R,4S,6R)-4-(dimethylamino)-3-hydroxy-6-methyloxan-2-yl]oxy}-4-ethyl-3a,7,9,11,13,15-hexamethyl-1-[2-(pyrrolidin-1-yl)ethyl]-11-{[(2E)-3-(quinolin-3-yl)prop-2-en-1-yl]oxy}-tetradecahydro-1H-oxacyclotetradeca[4,3-d][1,3]oxazole-2,6,8,14-tetrone [Compound 13I]
IC50 (CYP3A4; [6]): 2.1 µM | CYP3A4 inhibition in comparison with solithromycin and ketoconazole (CYP3A4): lower IC50 inhibition of CYP3A4 inhibition | MIC Strep. Pneumoniae ATCC49619 QC strain [1]: 0.03 to 0.06 µg/mL | MIC Strep. Pneumoniae AUCC 483 penS, macR cMLS [2]: 0.25 to 1 µg/mL | MIC Strep. Pneumoniae AUCC 479 penS, macS [3]: 0.015 to 0.03 µg/mL | MIC Strep. Pneumoniae AUCC 489 penR, macR cMLS [4]: 0.25 to 1 µg/mL | MIC Strep. Pneumoniae AUCC 488 penR, macR M or iMLS [5]: 0.25 to 0.5 µg/mL

(3aS,4R,7R,9R,10R,11R,13R,15R,15aR)-10-{[(2S,3R,4S,6R)-4-(dimethylamino)-3-hydroxy-6-methyloxan-2-yl]oxy}-4-ethyl-1-{[(2S)-1-ethylpyrrolidin-2-yl]methyl}-3a,7,9,11,13,15-hexamethyl-11-{[(2E)-3-(quinolin-3-yl)prop-2-en-1-yl]oxy}-tetradecahydro-1H-oxacyclotetradeca[4,3-d][1,3]oxazole-2,6,8,14-tetrone [Compound 13C]
IC50 (CYP3A4; [6]): 1.8 µM | CYP3A4 inhibition in comparison with solithromycin and ketoconazole (CYP3A4): lower IC50 inhibition of CYP3A4 inhibition | MIC Strep. Pneumoniae ATCC49619 QC strain [1]: 0.06 to 0.12 µg/mL | MIC Strep. Pneumoniae AUCC 483 penS, macR cMLS [2]: 0.5 to 1 µg/mL | MIC Strep. Pneumoniae AUCC 479 penS, macS [3]: 0.03 µg/mL | MIC Strep. Pneumoniae AUCC 489 penR, macR cMLS [4]: 0.5 to 1 µg/mL | MIC Strep. Pneumoniae AUCC 488 penR, macR M or iMLS [5]: 0.5 µg/mL

CC[C@H]1OC(=O)[C@H](C)[C@@H](O[C@H]2C[C@@](C)(OC)[C@@H](O)[C@H](C)O2)[C@H](C)[C@@H](O[C@@H]2O[C@H](C)C[C@H](N(C)C)[C@H]2O)[C@](C)(O)C[C@@H](C)C(=O)[C@H](C)[C@@H](O)[C@]1(C)O [erythromycin, reference compound]
MIC ([1]; Streptococcus pneumoniae, ATCC49619 QC strain, read-out: MIC Strep. Pneumoniae ATCC49619 QC strain): 0.03 to 0.06 µg/mL (≈ 0.0409 to 0.0818 µM) | MIC Strep. Pneumoniae AUCC 483 penS, macR cMLS [2]: 64 µg/mL (≈ 87.2 µM) | MIC Strep. Pneumoniae AUCC 479 penS, macS [3]: 0.03 to 0.06 µg/mL | MIC Strep. Pneumoniae AUCC 489 penR, macR cMLS [4]: 8 to 32 µg/mL | MIC Strep. Pneumoniae AUCC 488 penR, macR M or iMLS [5]: 8 to 16 µg/mL

(3aS,4R,7R,9R,10R,11R,13R,15R,15aR)-10-{[(2S,3R,4S,6R)-4-(dimethylamino)-3-hydroxy-6-methyloxan-2-yl]oxy}-4-ethyl-3a,7,9,11,13,15-hexamethyl-1-{2-[(2R)-1-methylpyrrolidin-2-yl]ethyl}-11-{[(2E)-3-(quinolin-3-yl)prop-2-en-1-yl]oxy}-tetradecahydro-1H-oxacyclotetradeca[4,3-d][1,3]oxazole-2,6,8,14-tetrone [Compound 13P]
IC50 (CYP3A4; [7]): 6.3 µM | CYP3A4 inhibition in comparison with solithromycin and ketoconazole (CYP3A4): lower IC50 inhibition of CYP3A4 inhibition | MIC Strep. Pneumoniae ATCC49619 QC strain [1]: 0.03 to 0.06 µg/mL | MIC Strep. Pneumoniae AUCC 483 penS, macR cMLS [2]: 0.06 to 0.12 µg/mL | MIC Strep. Pneumoniae AUCC 479 penS, macS [3]: 0.015 to 0.03 µg/mL | MIC Strep. Pneumoniae AUCC 489 penR, macR cMLS [4]: 0.12 to 0.25 µg/mL | MIC Strep. Pneumoniae AUCC 488 penR, macR M or iMLS [5]: 0.5 to 1 µg/mL

CCC1OC(=O)C(C)C(=O)C(C)C(OC2OC(C)CC(N(C)C)C2O)C(C)(OCC=Cc2cnc3ccccc3c2)CC(C)C(=O)C(C)C2N(CC3CCN(C)C3)C(=O)OC12C [Compound 13N, (3aS,4R,7R,9R,10R,11R,13R,15R,15aR)-10-{[(2S,3R,4S,6R)-4-(dimethylamino)-3-hydroxy-6-methyloxan-2-yl]oxy}-4-ethyl-3a,7,9,11,13,15-hexamethyl-1-{[(3S)-1-methylpyrrolidin-3-yl]methyl}-11-{[(2E)-3-(quinolin-3-yl)prop-2-en-1-yl]oxy}-tetradecahydro-1H-oxacyclotetradeca[4,3-d][1,3]oxazole-2,6,8,14-tetrone]
IC50 (CYP3A4; [7]): 7.7 µM | CYP3A4 inhibition in comparison with solithromycin and ketoconazole (CYP3A4): lower IC50 inhibition of CYP3A4 inhibition | MIC Strep. Pneumoniae ATCC49619 QC strain [1]: 0.03 to 0.06 µg/mL | MIC Strep. Pneumoniae AUCC 483 penS, macR cMLS [2]: 0.5 to 1 µg/mL | MIC Strep. Pneumoniae AUCC 479 penS, macS [3]: 0.03 µg/mL (≈ 0.0348 µM) | MIC Strep. Pneumoniae AUCC 489 penR, macR cMLS [4]: 0.5 to 1 µg/mL | MIC Strep. Pneumoniae AUCC 488 penR, macR M or iMLS [5]: 0.5 to 1 µg/mL

CC[C@H]1OC(=O)[C@H](C)C(=O)[C@H](C)[C@@H](O[C@@H]2O[C@H](C)C[C@H](N(C)C)[C@H]2O)[C@](C)(OC/C=C/c2cnc3ccccc3c2)C[C@@H](C)C(=O)[C@H](C)[C@H]2N(CCOC)C(=O)O[C@]12C [Compound 13E, (3aS,4R,7R,9R,10R,11R,13R,15R,15aR)-10-{[(2S,3R,4S,6R)-4-(dimethylamino)-3-hydroxy-6-methyloxan-2-yl]oxy}-4-ethyl-1-(2-methoxyethyl)-3a,7,9,11,13,15-hexamethyl-11-{[(2E)-3-(quinolin-3-yl)prop-2-en-1-yl]oxy}-tetradecahydro-1H-oxacyclotetradeca[4,3-d][1,3]oxazole-2,6,8,14-tetrone]
MIC Strep. Pneumoniae ATCC49619 QC strain [1]: 0.06 to 0.12 µg/mL | MIC Strep. Pneumoniae AUCC 483 penS, macR cMLS [2]: >4 µg/mL | MIC Strep. Pneumoniae AUCC 479 penS, macS [3]: 0.03 to 0.06 µg/mL | MIC Strep. Pneumoniae AUCC 489 penR, macR cMLS [4]: >4 µg/mL | MIC Strep. Pneumoniae AUCC 488 penR, macR M or iMLS [5]: 0.25 to 0.5 µg/mL
